Source: the NIST ThermoML archive (doi:10.1016/j.fluid.2011.11.022)
± gives the expanded uncertainty stated by the source.

Settings: Liquid; for mass density: Buoyancy - hydrostatic balance; for viscosity: Falling or rolling sphere viscometry

OCCOCCOCCO [triethylene glycol]
Settings	mass density [kg/m3]	viscosity [mPa·s]
298.15 K, 98 kPa	1119.75 ± 6.7	36.82 ± 1.5
298.15 K, 49030 kPa	1143.46 ± 6.9	55.23 ± 2.3
298.15 K, 98060 kPa	1161.38 ± 7	80.29 ± 3.5
298.15 K, 147100 kPa	1175.25 ± 7.1	114.4 ± 5.5
298.15 K, 196130 kPa	1189.31 ± 7.2	160.6 ± 8.7
298.15 K, 245160 kPa	1200.31 ± 7.2	221.8 ± 14
312.96 K, 98 kPa	1109.61 ± 6.7	19.03 ± 0.79
313.05 K, 49030 kPa	1134.18 ± 6.8	27.42 ± 1.1
313.1 K, 98060 kPa	1152.38 ± 6.9	38.28 ± 1.6
313.18 K, 147100 kPa	1166.44 ± 7	52.5 ± 2.1
313.25 K, 196130 kPa	1180.35 ± 7.1	70.68 ± 3
313.26 K, 245160 kPa	1191.47 ± 7.2	93.99 ± 4.3
334.96 K, 98 kPa	1093.69 ± 6.6	9.002 ± 0.37
335.11 K, 49030 kPa	1119.52 ± 6.7	12.45 ± 0.52
335.14 K, 98060 kPa	1138.49 ± 6.8	16.7 ± 0.69
335.2 K, 147100 kPa	1153.34 ± 6.9	22.03 ± 0.92
335.25 K, 196130 kPa	1167.46 ± 7	28.48 ± 1.2
335.26 K, 245160 kPa	1178.87 ± 7.1	36.37 ± 1.5
349.25 K, 98 kPa	1082.8 ± 6.5	5.945 ± 0.25
349.94 K, 196130 kPa	1158.94 ± 7	17.53 ± 0.73
349.98 K, 49030 kPa	1109.01 ± 6.7	8.061 ± 0.33
349.98 K, 98060 kPa	1128.74 ± 6.8	10.66 ± 0.44
349.99 K, 245160 kPa	1170.6 ± 7	21.84 ± 0.91
350.03 K, 147100 kPa	1144.4 ± 6.9	13.75 ± 0.57
364.44 K, 98 kPa	1070.74 ± 6.4	4.131 ± 0.17
364.44 K, 49030 kPa	1098.31 ± 6.6	5.537 ± 0.23
364.72 K, 98060 kPa	1118.72 ± 6.7	7.149 ± 0.3
365.03 K, 147100 kPa	1135.26 ± 6.8	9.021 ± 0.37
365.07 K, 196130 kPa	1150.26 ± 6.9	11.24 ± 0.46
365.2 K, 245160 kPa	1162.2 ± 7	13.8 ± 0.57
413.73 K, 98 kPa	1028.27 ± 6.2	1.679 ± 0.069
414 K, 49030 kPa	1058.03 ± 6.4	2.179 ± 0.09
414.15 K, 98060 kPa	1082.77 ± 6.5	2.836 ± 0.12
414.27 K, 147100 kPa	1104.57 ± 6.7	3.32 ± 0.14
414.3 K, 196130 kPa	1122.57 ± 6.8	3.995 ± 0.17
414.43 K, 245160 kPa	1136 ± 6.8	4.485 ± 0.19
462.25 K, 98 kPa	981.42 ± 5.9	0.997 ± 0.041
462.26 K, 49030 kPa	1013.43 ± 6.1	1.303 ± 0.054
462.32 K, 98060 kPa	1044.24 ± 6.3	1.614 ± 0.067
462.41 K, 147100 kPa	1073.54 ± 6.5	1.941 ± 0.08
462.45 K, 196130 kPa	1096.35 ± 6.6	2.3 ± 0.095
462.58 K, 245160 kPa	1111.83 ± 6.7	2.678 ± 0.11

OCCO [1,2-ethanediol]
Settings	mass density [kg/m3]	viscosity [mPa·s]
293.15 K, 98 kPa	1113.58 ± 6.7	21.1 ± 0.86
293.15 K, 49030 kPa	1134.56 ± 6.8	26.75 ± 1.1
293.15 K, 98060 kPa	1147.72 ± 6.9	33.42 ± 1.4
293.15 K, 147100 kPa	1159.85 ± 7	41.19 ± 1.7
293.15 K, 196130 kPa	1173.34 ± 7	50.33 ± 2
293.15 K, 245160 kPa	1185.44 ± 7.1	60.43 ± 2.4
312.46 K, 98 kPa	1100.88 ± 6.6	9.925 ± 0.4
312.46 K, 98060 kPa	1139.02 ± 6.8	14.82 ± 0.61
312.49 K, 49030 kPa	1123.04 ± 6.7	12.24 ± 0.5
312.49 K, 147100 kPa	1153.18 ± 6.9	17.64 ± 0.72
312.65 K, 245160 kPa	1179.39 ± 7.1	24.69 ± 1
334.87 K, 98 kPa	1085.13 ± 6.5	4.949 ± 0.2
335 K, 49030 kPa	1108.43 ± 6.7	5.952 ± 0.24
335.3 K, 98060 kPa	1127.05 ± 6.8	7.031 ± 0.29
335.35 K, 245160 kPa	1169.07 ± 7	11.15 ± 0.46
335.43 K, 147100 kPa	1143.57 ± 6.9	8.234 ± 0.34
335.45 K, 196130 kPa	1156.71 ± 6.9	9.608 ± 0.4
349.24 K, 98 kPa	1074.46 ± 6.5	3.517 ± 0.14
349.5 K, 49030 kPa	1098.33 ± 6.6	4.157 ± 0.17
349.65 K, 98060 kPa	1118.59 ± 6.7	4.89 ± 0.2
349.67 K, 147100 kPa	1136.69 ± 6.8	5.688 ± 0.23
349.8 K, 196130 kPa	1149.28 ± 6.9	6.541 ± 0.27
349.91 K, 245160 kPa	1161.91 ± 7	7.454 ± 0.3
365.7 K, 98 kPa	1061.7 ± 6.4	2.39 ± 0.097
366.1 K, 49030 kPa	1086.11 ± 6.5	2.816 ± 0.12
366.15 K, 98060 kPa	1107.99 ± 6.7	3.302 ± 0.13
366.37 K, 147100 kPa	1127.71 ± 6.8	3.812 ± 0.15
366.48 K, 196130 kPa	1139.94 ± 6.8	4.344 ± 0.18
366.8 K, 245160 kPa	1153.08 ± 6.9	4.889 ± 0.2
380.15 K, 98060 kPa	1098.24 ± 6.6	2.558 ± 0.1
380.82 K, 98 kPa	1049.47 ± 6.3	1.872 ± 0.076
381 K, 49030 kPa	1074.54 ± 6.5	2.207 ± 0.09
381.2 K, 196130 kPa	1131.06 ± 6.8	3.345 ± 0.14
381.27 K, 147100 kPa	1118.88 ± 6.7	2.932 ± 0.12
381.3 K, 245160 kPa	1145.04 ± 6.9	3.784 ± 0.15
395.55 K, 98 kPa	1037.07 ± 6.2	1.419 ± 0.058
395.6 K, 49030 kPa	1062.66 ± 6.4	1.673 ± 0.068
395.61 K, 98060 kPa	1086.68 ± 6.5	1.936 ± 0.079
395.65 K, 147100 kPa	–	2.214 ± 0.09
395.73 K, 196130 kPa	1121.71 ± 6.7	2.501 ± 0.1
395.8 K, 245160 kPa	1136.57 ± 6.8	2.811 ± 0.11
421.7 K, 98 kPa	1013.93 ± 6.1	0.96 ± 0.039
421.71 K, 49030 kPa	1040.05 ± 6.2	1.174 ± 0.048
421.8 K, 98060 kPa	1065.2 ± 6.4	1.345 ± 0.055
421.9 K, 147100 kPa	1090.87 ± 6.5	1.521 ± 0.062
422 K, 196130 kPa	–	1.716 ± 0.07
422 K, 245160 kPa	1120.22 ± 6.7	1.898 ± 0.077
464.4 K, 98 kPa	972.98 ± 5.8	0.652 ± 0.027
464.47 K, 98060 kPa	1025.08 ± 6.2	0.97 ± 0.039
464.53 K, 196130 kPa	1069.52 ± 6.4	1.203 ± 0.049
464.53 K, 245160 kPa	1090.75 ± 6.5	1.356 ± 0.055
464.54 K, 147100 kPa	1055.29 ± 6.3	1.11 ± 0.045
464.6 K, 49030 kPa	999.13 ± 6	0.877 ± 0.036
